Results on 27 compounds are retold here after patent publication US9102675B2, “3-Cyanoaryl-1H-pyrrolo[2,3-B] pyridine derivatives” (MERCK PATENT GMBH, priority 2011, dated 2015).

For this assay, the target named is T1, TANK binding kinase (TBK1) (Homo sapiens, UniProt Q9UHD2).
T1 sequence (Q9UHD2 1-729): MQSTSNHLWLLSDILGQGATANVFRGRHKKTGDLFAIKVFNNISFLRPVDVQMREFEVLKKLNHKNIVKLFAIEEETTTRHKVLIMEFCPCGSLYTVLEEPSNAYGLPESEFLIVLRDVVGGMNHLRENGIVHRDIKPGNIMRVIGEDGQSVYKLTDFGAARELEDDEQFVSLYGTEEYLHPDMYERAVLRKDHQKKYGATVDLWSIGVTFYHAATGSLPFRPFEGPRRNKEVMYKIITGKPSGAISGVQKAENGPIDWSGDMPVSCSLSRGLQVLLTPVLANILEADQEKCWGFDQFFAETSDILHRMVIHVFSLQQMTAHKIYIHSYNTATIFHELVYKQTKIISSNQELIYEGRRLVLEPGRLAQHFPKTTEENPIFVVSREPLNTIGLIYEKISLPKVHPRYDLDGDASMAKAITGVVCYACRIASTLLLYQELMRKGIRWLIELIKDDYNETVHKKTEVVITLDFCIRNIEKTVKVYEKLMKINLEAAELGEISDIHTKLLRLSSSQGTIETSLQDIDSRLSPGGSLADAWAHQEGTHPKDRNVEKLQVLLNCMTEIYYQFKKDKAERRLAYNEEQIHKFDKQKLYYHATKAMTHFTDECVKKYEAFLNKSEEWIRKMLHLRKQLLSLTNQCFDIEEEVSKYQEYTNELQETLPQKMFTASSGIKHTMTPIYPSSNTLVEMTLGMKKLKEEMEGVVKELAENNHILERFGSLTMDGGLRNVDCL
The assay is described as follows: TBK1 enzyme assay (384-well flashplate kinase assay). The conditions noted are these: 10 μM ATP, 0.6 nM TBK1. It is filed as biochemical. Here is the method:
Test for the Inhibition of TBK1
The kinase assay is performed as 384-well flashplate assay (for example for Topcount measurement).
0.6 nM TANK binding kinase (TBK1), 800 nM biotinylated MELK-derived peptide (biotin-Ah-Ah-[…]) and 10 μM ATP (spiked with 0.25 μCi of ^33P-ATP/well) are incubated at 30° C. for 120 min in a total volume of 50 μl (10 mM MOPS, 10 mM Mg acetate, 0.1 mM EGTA, 1 mM DTT, 0.02% of Brij35, 0.1% of BSA, pH 7.5) with or without test compound. The reaction is stopped with 25 μl of 200 mM EDTA. After 30 min at room temperature, the liquid is removed, and each well is washed three times with 100 μl of 0.9% sodium chloride solution. Non-specific reaction is measured in the presence of 100 nM staurosporine. The radioactivity is measured in a Topcount (PerkinElmer). The results (for example IC50 values) are calculated using program tools provided by the IT Department (for example Assay-Explorer, Symyx). Cell Test

Compound `N#Cc1cc(-c2c[nH]c3ncccc23)ccc1OC1CCOCC1` [Compound A1, 5-(1H-pyrrolo[2,3-b]pyridin-3-yl)-2-tetrahydropyran-4-yloxybenzonitrile] registered an IC50 below 300 nM.

`Cn1cc(-c2cnc3[nH]cc(-c4ccc(OC5CCOCC5)c(C#N)c4)c3c2)cn1` [Compound A4, 5-[5-(1-methylpyrazol-4-yl)-1H-pyrrolo[2,3-b]pyridin-3-yl]-2-tetrahydropyran-4-yloxybenzonitrile] registered an IC50 below 300 nM.

`N#Cc1cc(-c2c[nH]c3ncc(-c4cnn(CCN5CCOCC5)c4)cc23)ccc1OC1CCOCC1` [Compound A7, 5-[5-[1-(2-morpholinoethyl)pyrazol-4-yl]-1H-pyrrolo[2,3-b]pyridin-3-yl]-2-tetrahydropyran-4-yloxybenzonitrile] had an IC50 below 300 nM.

Take `N#Cc1cc(-c2c[nH]c3ncc(-c4ccc(N5CCOCC5)cc4)cc23)ccc1OC1CCOCC1` [Compound A8, 5-[5-(4-morpholinophenyl)-1H-pyrrolo[2,3-b]pyridin-3-yl]-2-tetrahydropyran-4-yloxybenzonitrile]: the half-inhibitory concentration (IC50) was below 300 nM.

Regarding `N#Cc1cc(-c2c[nH]c3ncc(-c4cnn(CCN5CCCC5)c4)cc23)ccc1OC1CCOCC1` [Compound A9, 5-[5-[1-(2-pyrrolidin-1-ylethyl)pyrazol-4-yl]-1H-pyrrolo[2,3-b]pyridin-3-yl]-2-tetrahydropyran-4-yloxybenzonitrile], the IC50 is below 300 nM.

The compound `COCCn1cc(-c2cnc3[nH]cc(-c4ccc(OC5CCOCC5)c(C#N)c4)c3c2)cn1` [Compound A10, 5-[5-[1-(2-methoxyethyl)pyrazol-4-yl]-1H-pyrrolo[2,3-b]pyridin-3-yl]-2-tetrahydropyran-4-yloxybenzonitrile] displayed an IC50 below 300 nM.

With `N#Cc1cc(-c2c[nH]c3ncc(-c4cnn(C5CCNCC5)c4)cc23)ccc1OC1CCOCC1` [Compound A12, 5-[5-(1-piperidin-4-yl-1H-pyrazol-4-yl)-1H-pyrrolo[2,3-b]pyridin-3-yl]-2-(tetrahydropyran-4-yloxy)benzonitrile], the IC50 was below 300 nM.

Compound `CN1CCC(Oc2ccc(-c3c[nH]c4ncc(-c5cnn(C)c5)cc34)cc2C#N)CC1` [Compound A13, 2-(1-methylpiperidin-4-yloxy)-5-[5-(1-methyl-1H-pyrazol-4-yl)-1H-pyrrolo[2,3-b]pyridin-3-yl]benzonitrile] returned an IC50 below 300 nM.

In the case of `N#Cc1cc(-c2c[nH]c3ncc(-c4cnn(CCO)c4)cc23)ccc1OC1CCOCC1` [Compound A15, 5-[5-[1-(2-hydroxyethyl)pyrazol-4-yl]-1H-pyrrolo[2,3-b]pyridin-3-yl]-2-tetrahydropyran-4-yloxybenzonitrile], the IC50 was below 300 nM.

As to `CN1CCC(n2cc(-c3cnc4[nH]cc(-c5ccc(OC6CCOCC6)c(C#N)c5)c4c3)cn2)CC1` [Compound A16, 5-[5-[1-(1-methyl-4-piperidyl)pyrazol-4-yl]-1H-pyrrolo[2,3-b]pyridin-3-yl]-2-tetrahydropyran-4-yloxybenzonitrile], the IC50 was below 300 nM.

`CN1CCN(c2cnc3[nH]cc(-c4ccc(OC5CCOCC5)c(C#N)c4)c3c2)CC1` [Compound A17, 5-[5-(4-methylpiperazin-1-yl)-1H-pyrrolo[2,3-b]pyridin-3-yl]-2-tetrahydropyran-4-yloxybenzonitrile] gave an IC50 of 300 to 3000 nM.

`N#Cc1cc(-c2c[nH]c3ncc(-c4cnn(C5CCNCC5)c4)cc23)cnc1OC1CCOCC1` [Compound A18, 5-[5-[1-(4-piperidyl)pyrazol-4-yl]-1H-pyrrolo[2,3-b]pyridin-3-yl]-2-tetrahydropyran-4-yloxypyridine-3-carbonitrile] showed an IC50 below 300 nM.

For `CN1CCC(n2cc(-c3cnc4[nH]cc(-c5ccc(OC6CCOCC6)c(C#N)c5)c4c3)cn2)CC1` [Compound A20, 5-[5-[1-(1-methyl-4-piperidyl)pyrazol-4-yl]-1H-pyrrolo[2,3-b]pyridin-3-yl]-2-tetrahydropyran-4-yloxybenzonitrile], the IC50 is below 300 nM.

The compound `N#Cc1cc(-c2c[nH]c3ncc(OCCN4CCOCC4)cc23)ccc1OC1CCOCC1` [Compound A21, 5-[5-(2-morpholinoethoxy)-1H-pyrrolo[2,3-b]pyridin-3-yl]-2-tetrahydropyran-4-yloxybenzonitrile] showed an IC50 below 300 nM.

Regarding `N#Cc1cc(-c2c[nH]c3ncc(-c4cn(C5CCNCC5)nn4)cc23)ccc1OC1CCOCC1` [Compound A22, 5-[5-[1-(4-piperidyl)triazol-4-yl]-1H-pyrrolo[2,3-b]pyridin-3-yl]-2-tetrahydropyran-4-yloxybenzonitrile], the IC50 is below 300 nM.

Compound `CN1CCC(n2cc(-c3cnc4[nH]cc(-c5ccc(OC6CCOCC6)c(C#N)c5)c4c3)nn2)CC1` [Compound A23, 5-[5-[1-(1-methyl-4-piperidyl)triazol-4-yl]-1H-pyrrolo[2,3-b]pyridin-3-yl]-2-tetrahydropyran-4-yloxybenzonitrile] registered an IC50 below 300 nM.

`CC1(COc2ccc(-c3c[nH]c4ncc(-c5cnn(C6CCNCC6)c5)cc34)cc2C#N)COC1` [Compound A24, 2-[(3-Methyloxetan-3-yl)methoxy]-5-[5-[1-(4-piperidyl)pyrazol-4-yl]-1H-pyrrolo[2,3-b]pyridin-3-yl]-benzonitrile] yielded an IC50 below 300 nM.

`N#Cc1cc(-c2c[nH]c3ncc(-c4cnn(C5COC5)c4)cc23)ccc1OC1CCOCC1` [Compound A26, 5-[5-[1-(Oxetan-3-yl)pyrazol-4-yl]-1H-pyrrolo[2,3-b]-pyridin-3-yl]-2-tetrahydropyran-4-yloxybenzonitrile] returned an IC50 below 300 nM.

`N#Cc1cc(-c2c[nH]c3ncc(-c4cn(CCN5CCCC5)nn4)cc23)ccc1OC1CCOCC1` [Compound A27, 5-[5-[1-(2-Pyrrolidin-1-ylethyl)triazol-4-yl]-1H-pyrrolo-[2,3-b]pyridin-3-yl]-2-tetrahydropyran-4-yloxybenzo-nitrile] returned an IC50 below 300 nM.

Turning to `Cn1cc(-c2cnc3[nH]cc(-c4cnc(OC5CCOCC5)c(C#N)c4)c3c2)cn1` [Compound A30, 5-[5-(1-Methylpyrazol-4-yl)-1H-pyrrolo[2,3-b]pyridin-3-yl]-2-tetrahydropyran-4-yloxypyridine-3-carbonitrile], the half-maximal inhibitory concentration (IC50) is below 300 nM.

`Cn1cc(-c2cnc3[nH]cc(-c4ccc(OC5COC5)c(C#N)c4)c3c2)cn1` [Compound A31, 5-[5-(1-methyl-1H-pyrazol-4-yl)-1H-pyrrolo[2,3-b]pyridin-3-yl]-2-(oxetan-3-yloxy)benzonitrile] displayed an IC50 below 300 nM.

As for `Cn1cc(-c2cnc3[nH]cc(-c4ccc(OCC5(C)COC5)c(C#N)c4)c3c2)cn1` [Compound A32, 2-(3-methyloxetan-3-ylmethoxy)-5-[5-(1-methyl-1H-pyrazol-4-yl)-1H-pyrrolo[2,3-b]pyridin-3-yl]benzonitrile], the IC50 is below 300 nM.

`N#Cc1cc(-c2c[nH]c3ncc(-c4cnn(CCN5CCCC5)c4)cc23)cnc1OC1CCOCC1` [Compound A33, 5-{5-[1-(2-Pyrrolidin-1-ylethyl)-1H-pyrazol-4-yl]-1H-pyrrolo[2,3-b]pyridin-3-yl}-2-(tetrahydropyran-4-yl-oxy)nicotinonitrile] yielded an IC50 below 300 nM.

The compound `N#Cc1cc(-c2c[nH]c3ncc(-c4cnn(C5COC5)c4)cc23)ccc1OC1COC1` [Compound A34, 2-(oxetan-3-yloxy)-5-[5-(1-oxetan-3-yl-1H-pyrazol-4-yl)-1H-pyrrolo-[2,3-b]pyridin-3-yl]benzonitrile] displayed a concentration for half-maximal inhibition (IC50) below 300 nM.

As for `CC1(COc2ccc(-c3c[nH]c4ncc(-c5cnn(C6COC6)c5)cc34)cc2C#N)COC1` [Compound A35, 2-(3-methyloxetan-3-ylmethoxy)-5-[5-(1-oxetan-3-yl-1H-pyrazol-4-yl)-1H-pyrrolo[2,3-b]-pyridin-3-yl]benzonitrile], the IC50 is below 300 nM.

`CC1(COc2ccc(-c3c[nH]c4ncc(-c5cn[nH]c5)cc34)cc2C#N)COC1` [Compound A36, 2-(3-methyloxetan-3-ylmethoxy)-5-[5-(1H-pyrazol-4-yl)-1H-pyrrolo[2,3-b]pyridin-3-yl]benzonitrile] came in with an IC50 below 300 nM.

As for `N#Cc1cc(-c2c[nH]c3ncc(-c4cnn(C5COC5)c4)cc23)cnc1OC1CCOCC1` [Compound A37, 5-[5-(1-Oxetan-3-yl-1H-pyrazol-4-yl)-1H-pyrrolo-[2,3-b]pyridin-3-yl]-2-(tetrahydropyran-4-yloxy)-nicotinonitrile], the IC50 was below 300 nM.

As a reminder, the IC50 is the concentration needed to halve the response being measured. Low values mean inhibition by little substance, high ones a need for much substance.
